In US9637490B2, “Antifungal 5,6-dihydro-4-[(difluoroethyl)phenyl]-4H-pyrrolo[1,2-α][1,4]benzodiazepine and 4-(difluoroethyl)phenyl-6H-pyrrolo[1,2-α][1,4]benzodiazepine derivatives” (Janssen Pharmaceutica NV, priority 2010, dated 2017):
pIC50: −log10 of the molar value.

Tests used:
[1] = test system: Microsporum canis (strain B68128); test: Test D.4.1: activity against M. canis in guinea-pigs after oral treatment for 7 consecutive days; format: in vivo; parameters: key to semi-quantitative lesion score (mean): lesion score 0–3.5 by severity and size of lesion; conditions: oral 10 mg/kg once daily for 7 days
Protocol: The animals used in the tests described below were female Guinea pigs (Duncan-Hartley, Charles River, 200 g). These animals were kept in groups of 2 or 3 in cages of 56×33×20 cm^3. Food pellets (Carfil Quality) and water were available ad libitum in addition to a small daily amount of hay. Standard husbandry conditions were adopted: room temperature: 22° C., humidity level: 60% and a day-night cycle of 12 h.
For the preparation of inoculums, Microsporum canis (strain B68128) was grown on Sabouraud Dextrose Agar (SDA) plates for at least one week (7-10 days) before infection (27° C.). On the day of infection, spores were harvested by adding 4-5 ml sterile water on the plate and suspending the infectious material with a bend Pasteur pipette. From the recollected fluid, 10 μl was added to a KOVA counting chamber for determination of the number of spores in 1 square (average of several squares). If needed, additional dilutions (10× or 100×) were prepared. The average number of spores in one square×dilution×90.000=cfu/ml. An inoculum of 1×10^7 cfu/ml was prepared in a honey-water mixture (50%-50%).
In the tests described below, semi-quantitative lesion scores were given based on different clinical parameters. Scores between 0 and 3.5 were assigned based on the severity and size of the lesion. The criteria are listed in detail in Table 6.
The dorsum of the guinea pigs was shaved and further depilated for 3 minutes with Veet® creme before scarification with a steel brush. An inoculum of 10^6 cfu in 150 μl (75 mQ+75 μl honey) was applied to the wound using a micropipette with disposable tips. The animal was kept immobilized until the inoculum had completely dried. […]
vehicle: methocel 0.5%, Tween 80® (polysorbate 80), demineralised water reference compound: itraconazole at 6.25 mg/ml test compounds: prepared at 25 mg/ml, subsequently further diluted
Oral treatment (gavage 0.16 ml/100 g once daily) was started about 2 hours before infection and continued once daily for 7 consecutive days. The animals were weighed after 3 days of treatment to adjust for the dose.
Developments of lesions were evaluated following the semi-quantitative lesion scoring system (see Table 6) on days 3, 5, 7, 10, 12, 14, 17 and 20. The results are show in Table 7 (“DPI” means days post infection). Reported values in Table 7 are mean values.

in vivo = test: in vivo; parameters: species or system mice; conditions: mouse, po
Protocol: (§1) Three animals (mean weight 20±7 g for mice and 275±20 for Guinea pigs) were used per dose route, time point and formulation.
(§2) For the oral (PO) solution formulation, compound was dissolved in a 20% hydroxypropyl-β-cyclodextrin (HP-β-CD) solution at a final concentration of 1 mg/ml. HCl was added to facilitate dissolution. After dissolution, the pH was brought up to 3.7 with NaOH. Mannitol was added to make the solution isotonic. For the PO suspension formulation, compound was suspended in 0.5% methocel at a final concentration of 1 mg/ml. The formulations were stored at room temperature, protected from light and analysed quantitatively with LC-MS/MS on the day of preparation. Stability of the formulations was checked on the day of dosing.
(§3) The animals were dosed orally by gastric intubation at 10 ml/kg to obtain a final dose 10 mg/kg. Three dosed animals were sacrificed for blood sampling at 15 and 30 min, 1, 2, 3, 4, 6, 8 and 24 h after PO dose administration as a solution and at 30 min, 1, 2, 4, 6, 8 and 24 h after PO dose administration as a suspension.
(§4) Blood was collected by multiple sampling from a tail vein into Multivette® 600 K3E tubes (Sarstedt). Samples were placed immediately at approximately 4° C. and plasma was obtained following centrifugation at 4° C. for 10 minutes at approximately 1900×g. All samples were shielded from daylight and stored at ≦−18° C. prior to analysis.
(§5) Plasma samples were analysed for dosed compound using a qualified research LC-MS/MS method. The key analytical performance (linearity, upper and lower limit of quantification, accuracy and precision) of the method was reported together with the plasma concentrations.
(§6) A limited pharmacokinetic analysis was performed using WinNonlin™ Professional (Version 5.2.1). A non-compartmental analysis using the lin/log trapezoidal rule with lin/log interpolation was used for all data.

[2] = In vivo pharmacokinetic determinations (bioavailability) in guinea pigs; conditions: guinea pig
Protocol: as §1, §2, §3, §4, §5, §6

[3] = test system: Mucor circinelloides IHEM21105; test: Antifungal activity in vitro (resazurin susceptibility screen), Inf. L; format: cell-based; conditions: 27 °C, 48 hours, resa time 17 hours
Procedure, shortened: (§7)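 Compound dilutions spotted on plates, highest in-test concentration 64 μM. Inoculum of 10^3 cfu/well in RPMI-MOPS pH 7.0 added, then incubated by species (yeasts 24 h at 37° C; dermatophytes one week or more at 27° C). Resazurin added for a further period before fluorescence reading.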

[4] = test system: Cryptococcus neoformans B66663; test: Antifungal activity in vitro (resazurin susceptibility screen), Inf. F; format: cell-based; conditions: Cryptococcus neoformans, B66663, Cryptococcus neoformans B66663; 37 °C, 24 hours, resa time 4 hours
Procedure, shortened: as §7

[5] = test system: Scedosporium prolificans IHEM21157; test: Antifungal activity in vitro (resazurin susceptibility screen), Inf. I; format: cell-based; conditions: Lomentospora prolificans, 37 °C, 48 hours, resa time 17 hours
Procedure, shortened: as §7

Microsporum canis B68128 = test: Antifungal activity in vitro (resazurin susceptibility screen), Inf. B; format: cell-based; conditions: Microsporum canis, B68128, Microsporum canis B68128; 27 °C, 9 days, resa time 24 hours
Procedure, shortened: as §7

[6] = test system: Scedosporium apiospermum IHEM3817; test: Antifungal activity in vitro (resazurin susceptibility screen), Inf. H; format: cell-based; conditions: Scedosporium apiospermum, IHEM3817, Scedosporium apiospermum IHEM3817; 37 °C, 48 hours, resa time 17 hours
Procedure, shortened: as §7

[7] = test system: Rhizomucor miehei IHEM13391; test: Antifungal activity in vitro (resazurin susceptibility screen), Inf. K; format: cell-based; conditions: Rhizomucor miehei, IHEM13391, Rhizomucor miehei IHEM13391; 37 °C, 48 hours, resa time 17 hours
Procedure, shortened: as §7

[8] = test system: Candida parapsilosis B66126; test: Antifungal activity in vitro (resazurin susceptibility screen), Inf. D; format: cell-based; conditions: Lodderomyces parapsilosis, B66126, Candida parapsilosis B66126; 37 °C, 24 hours, resa time 4 hours
Procedure, shortened: as §7

Rhizopus oryzae IHEM5223 = test: Antifungal activity in vitro (resazurin susceptibility screen), Inf. J; format: cell-based; conditions: Rhizopus arrhizus, 37 °C, 24 hours, resa time 6 hours
Procedure, shortened: as §7

[9] = test system: Trichophyton rubrum B68183; test: Antifungal activity in vitro (resazurin susceptibility screen), Inf. C; format: cell-based; conditions: Trichophyton rubrum, B68183, Trichophyton rubrum B68183; 27 °C, 7 days, resa time 24 hours
Procedure, shortened: as §7

[10] = test system: Sporothrix schenkii B62482; test: Antifungal activity in vitro (resazurin susceptibility screen), Inf. A; format: cell-based; conditions: Sporothrix, B62482, Sporothrix schenkii B62482; 27 °C, 4 days, resa time 24 hours
Procedure, shortened: as §7

[11] = test system: Aspergillus fumigatus B42928; test: Antifungal activity in vitro (resazurin susceptibility screen), Inf. E; format: cell-based; conditions: Aspergillus fumigatus, B42928, Aspergillus fumigatus B42928; 27 °C, 48 hours, resa time 17 hours
Procedure, shortened: as §7

[12] = test system: Trichophyton mentagrophytes B70554; test: Antifungal activity in vitro (resazurin susceptibility screen), Inf. G; format: cell-based; conditions: Trichophyton mentagrophytes, B70554, Trichophyton mentagrophytes B70554; 27 °C, 7 days, resa time 24 hours
Procedure, shortened: as §7

SMILES: CN(C/C=C/C#CC(C)(C)C)Cc1cccc2ccccc12 [Terbinafine, reference compound]
- semi-quantitative lesion score (mean) ([1]; 3 DPI): 0
- semi-quantitative lesion score (mean) ([1]; 5 DPI): 0
- semi-quantitative lesion score (mean) ([1]; 7 DPI): 0.08
- semi-quantitative lesion score (mean) ([1]; 10 DPI): 0.33
- semi-quantitative lesion score (mean) ([1]; 12 DPI): 0.80
- semi-quantitative lesion score (mean) ([1]; 14 DPI): 0.75
- semi-quantitative lesion score (mean) ([1]; 17 DPI): 0.50
- semi-quantitative lesion score (mean) ([1]; 20 DPI): 0.42
- bioavailability (in vivo; 10 mg/kg): 19%
- bioavailability ([2]; po, 10 mg/kg): 14%

SMILES: CCc1ccc(C2=NCc3c(Cl)cccc3-n3cccc32)cc1 [Compound 22 of WO02/34752, reference compound]
- bioavailability (in vivo; 10 mg/kg): 11%
- bioavailability ([2]; po): 2.7%

SMILES: CC(F)(F)c1ccc(C2=NCc3c(Cl)cc(Cl)cc3-n3cccc32)cc1 [Compound 9, 7,9-dichloro-4-[4-(1,1-difluoroethyl)phenyl]-6H-pyrrolo[1,2-a][1,4]benzodiazepine]
- pIC50 [3]: < 4.19
- pIC50 [4]: 6.06
- pIC50 [5]: 5.22
- pIC50 (Microsporum canis B68128): 5.40
- bioavailability (in vivo): 100%
- pIC50 [6]: 5.02
- pIC50 [7]: < 4.19
- pIC50 [8]: < 4.19
- pIC50 (Rhizopus oryzae IHEM5223): < 4.19
- pIC50 [9]: 6.00
- Bioavailability in guinea pigs (result in words) [2]: Bioavailability in guinea pigs: not soluble
- pIC50 [10]: 4.96
- pIC50 [11]: 5.10
- pIC50 [12]: 4.89

SMILES: CC(F)(F)c1ccc(C2=NCc3ccc(Cl)cc3-n3cccc32)cc1 [Compound 17, 9-chloro-4-[4-(1,1-difluoroethyl)phenyl]-6H-pyrrolo[1,2-a][1,4]benzodiazepine]
- pIC50 [3]: < 4.19
- pIC50 [4]: 6.49
- pIC50 [5]: 6.12
- pIC50 (Microsporum canis B68128): 5.58
- melting point: 115.3 °C (dec.)
- pIC50 [6]: < 4.19
- pIC50 [7]: < 4.19
- pIC50 [8]: 5.61
- pIC50 (Rhizopus oryzae IHEM5223): 5.08
- pIC50 [9]: 6.34
- bioavailability ([2]; po, 10 mg/kg): 70%
- pIC50 [10]: 5.25
- pIC50 [11]: 6.26
- pIC50 [12]: 5.79

SMILES: CCc1ccc(C2=NCc3ccc(Cl)cc3-n3cccc32)cc1 [Compound 23 of WO02/34752, reference compound]
- bioavailability ([2]; PO 40 mg/kg, IV 2.5 mg/kg, read-out: Bioavailability in guinea pigs): 7%
